Data reported in patent US20240053346A1, “FLUORESCENT DYE AND METHOD FOR DETECTING TUMOR CELLS” (NATIONAL UNIVERSITY CORPORATION EHIME UNIVERSITY, priority 2020, published 2024).
Read-outs that look alike come from different tables or passages of the source.

What was measured:
[1] = system: extramammary Paget's disease lesion tissue; experiment: Test Example 3: staining with various SC compounds, two-photon microscopy; settings: cleared Paget's disease lesion tissue; for imaging performance for fluorescence observation (rank): judged by fluorescence intensity and contrast of staining
Protocol: (§1) The staining solution of Test Examples 1 and 2 was prepared by dissolving PK in DMSO at 1 mg/mL. Each of staining solutions of Test Example 3 and Test Example 4 was a DMSO solution containing 1 mM of an SC compound, and was diluted 100 times for use of staining.
(§2) As the skin normal part tissue, the extramammary Paget's disease lesion tissue, and the melanoma lesion tissue used in Test Examples, whole tissue sections of the tissues obtained by excision were used. A dermatologist has confirmed in advance the identification of each tissue. Also, a normal part tissue and a tumor tissue of the rectum were also prepared by whole-sectioning of the tissues obtained by excision, and a specialist has confirmed the identification of each tissue. The collection and use of the tumor tissues were approved by the Clinical Research Ethics Review Board at Ehime University Hospital (No. 1802009) and were conducted according to its study protocol.
(§3) For microscopy, a two-photon microscope AIR MP+(NIKON) was used. In the measurement, a 960 nm laser light source and a 495 nm filter were used for PK, and a 561 nm filter was used for PI. Scanning was performed to a depth of 100 μm of the sample. The three-dimensional reconstructed image is obtained by processing the obtained data with the software included.
(§4) Normal part tissue of the skin and extramammary Paget's disease lesion tissue cleared by LUCID method in the same manner as in Test Example 2 were stained with a staining solution containing PK, PC, Nile Red, or POLARIC. Each stained tissue section was observed according to the method of two-photon microscopy of Test Example 1. The images were produced by coloring a fluorescent wavelength of 492 nm or less in cyan, 500 to 550 nm in green, 560 to 593 nm in yellow, and 593 nm or more in red. Brightness and contrast of the illustrated images were appropriately corrected.

[2] = system: melanoma lesion tissue of the skin; experiment: as above; settings: for imaging performance for fluorescence observation (rank): cleared melanoma lesion tissue
Protocol: as §1, §2, §3, §4
Melanoma lesion tissue of the skin cleared by the same method were similarly stained and observed with a two-photon microscope.

[3] = system: malignant melanoma lesion tissue (melanoma cells); experiment: Test Example 2: PK staining of cleared three-dimensional tissue, two-photon microscopy; settings: cleared tissue 100 μm thick, LUCID method, 495 nm
Protocol: as §1, §2, §3
(§5) Derived extramammary Paget's disease lesion tissue having a thickness of 500 μm and malignant melanoma lesion tissue having a thickness of 100 μm were subjected to a clearing treatment without being subjected to fixation and thinly slicing, and then stained with PK and propidium iodide (PI). Clearing treatment was performed by using LUCID method, according to the procedure described in Sawada K, Kawakami R, Shigemoto R, and Nemoto T. Eur. J. Neurosci., 2018, Vol. 47, No. 9, 1033-1042. The cleared tissue was stained with a PK staining as in Test Example 1. PI staining was performed by a method usually performed in tissue staining. As conditions for microscopy, the same conditions as in Test Example 1 were used for detection of PK signals.

[4] = system: extramammary Paget's disease lesion tissue (Paget cells); experiment: as above
Protocol: as §1, §2, §3, §5

[5] = system: normal rectal mucosal epithelium (columnar epithelium); experiment: Test Example 4: PK and Hoechst staining of rectum, two-photon microscopy; settings: cleared by LUCID method, co-stained with Hoechst
Protocol: The staining solution of Test Examples 1 and 2 was prepared by dissolving PK in DMSO at 1 mg/mL. […]
as §2, §3
The normal part tissue and the well-differentiated adenocarcinoma lesion tissue of the rectum cleared by LUCID method in the same manner as in Test Example 2 were stained with PK and Hoechst. […]

[6] = system: extramammary Paget's disease lesion tissue, tumor cells (Paget cells); experiment: Test Example 1: PK staining of thin sliced section, two-photon microscopy
Protocol: as §1, §2
The extramammary Paget's disease lesion tissue and the normal part tissue were embedded in paraffin and then cut out to prepare tissue sections. The preparation of the sections (thickness: 5 μm) was performed by the procedure usually performed in histopathological examination. For staining with the PK staining solution, deparaffinization was performed by a conventional method, and then staining was performed by immersion in the PK staining solution at room temperature for several days to one week. In practice, the tissues were sufficiently stained by immersion in the PK staining solution at room temperature for 2 to 3 days.
as §3

[7] = cited from earlier work
[8] = system: well-differentiated adenocarcinoma lesion tissue of the rectum; experiment: Test Example 4: PK and Hoechst staining of rectum, two-photon microscopy; settings: cleared by LUCID method, co-stained with Hoechst
Protocol: as §1, §2
as §3, with “included. […]” for “included.”

[9] = Measurement of photophysical properties of PC in organic solvent and phosphate buffer (absorption spectrum, fluorescence spectrum, fluorescence quantum yield); assay type: physicochemical; settings: 20 mM phosphate buffer (pH 7.4) at 25° C.
[10] = 5 μm paraffin section, 960 nm laser, 495 nm filter

SMILES | fluorescence intensity of the raw image [1] | imaging performance for fluorescence observation (rank) [1] | shift of the fluorescence wavelength due to solvatochromism ([2]; Test Example 3 stained tissue) | imaging performance for fluorescence observation (rank) [2] | fluorescence signal in malignant melanoma cells [3] | detection of tumor cells (Paget cells) ([4]; cleared tissue 500 μm thick, LUCID method, 495 nm) | signals in normal cells of the epidermis, dermis, and hair follicle ([4]; normal cells within the observed lesion tissues of Test Example 2) | staining of normal rectal mucosal epithelium [5] | distinction of tumor cells from normal cells [6, 10] | fluorescence signal in the parts where the tumor cells (Paget cells) exist [6, 10] | distribution of the dye in cells ([6]; thin sliced section) | absorption maximum wavelength ([7]; 20 mM phosphate buffer (pH 7.4) at room temperature) | fluorescence maximum wavelength λDMSO ([7]; DMSO) | fluorescence maximum wavelength λMet ([7]; methanol) | fluorescence maximum wavelength λHep ([7]; n-heptane) | fluorescence maximum wavelength ΔTol ([7]; toluene) | staining of rectal tumor lesion [8] | absorption maximum wavelength [9] | fluorescence maximum wavelength [9]
CCN(CC)c1ccc2nc3c4ccccc4c(=O)cc-3oc2c1 [Nile Red] | lower than those of PK and PC | followed by PK, Nile Red, and POLARIC in this order | relatively small | followed by PK, POLARIC, and Nile Red in this order | – | – | – | – | – | – | – | – | – | – | – | – | – | – | –
CC(=O)c1ccc2ccc3c(N4CCCCC4)ccc4ccc1c2c43 [PK, 1-Acetyl-6-piperidylpyrene] | – | followed by PK, Nile Red, and POLARIC in this order | – | followed by PK, POLARIC, and Nile Red in this order | not observed | successfully detected even when they were scattered one by one | significantly observed in all of these cells | cell membranes were positive for PK staining, cytoplasm was poorly stained | tumor cells can be distinguished from normal cells | the fluorescence wavelength shifted and the signal level decreased | inserted into cell membranes | 407 nm | 558 nm | 593 nm | 474 nm | 503 nm | cytoplasmic staining property by PK staining was high | – | –
CCCC(=O)/C=C/c1ccc2ccc3c(N4CCCCC4)ccc4ccc1c2c43 [compound A, (E)-1-(6-(piperidin-1-yl)pyren-1-yl)hexa-1-en-3-one] | – | best performance | – | best performance | – | – | – | – | – | – | – | – | – | – | – | – | – | 421 nm | 621 nm
